{"source": "ChEMBL document CHEMBL1201862", "about": "“PubChem BioAssay data set” (2004)", "key": {"[1]": {"target": "T1, Low molecular weight phosphotyrosine protein phosphatase (Homo sapiens, UniProt P24666)", "T1 sequence (P24666 whole entry)": "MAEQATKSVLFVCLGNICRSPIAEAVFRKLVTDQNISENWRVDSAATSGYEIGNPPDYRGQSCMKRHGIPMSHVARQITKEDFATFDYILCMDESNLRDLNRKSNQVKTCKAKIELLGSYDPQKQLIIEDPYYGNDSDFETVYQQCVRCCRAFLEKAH", "assay_type": "functional", "conditions": "read-out: IC50_Mean"}, "Prothrombin": {"target": "Prothrombin (Homo sapiens, UniProt P00734)", "assay": "Thrombin 1536 HTS Dose Response Confirmation. [Related pubchem assays: 1046 (Thrombin 1536 HTS; hits were confirmed in this assay)]", "assay_type": "functional"}, "[2]": {"assay": "Luminescence Cell-Based Dose Retest to Confirm Inhibitors of Cancer Stem Cells. [Related pubchem assays (depositor defined):AID2717, AID2721]", "assay_type": "functional", "conditions": "Homo sapiens"}, "Cytochrome P450 1A2": {"target": "T2, Cytochrome P450 1A2 (Homo sapiens, UniProt P05177)", "T2 sequence (P05177 whole entry)": "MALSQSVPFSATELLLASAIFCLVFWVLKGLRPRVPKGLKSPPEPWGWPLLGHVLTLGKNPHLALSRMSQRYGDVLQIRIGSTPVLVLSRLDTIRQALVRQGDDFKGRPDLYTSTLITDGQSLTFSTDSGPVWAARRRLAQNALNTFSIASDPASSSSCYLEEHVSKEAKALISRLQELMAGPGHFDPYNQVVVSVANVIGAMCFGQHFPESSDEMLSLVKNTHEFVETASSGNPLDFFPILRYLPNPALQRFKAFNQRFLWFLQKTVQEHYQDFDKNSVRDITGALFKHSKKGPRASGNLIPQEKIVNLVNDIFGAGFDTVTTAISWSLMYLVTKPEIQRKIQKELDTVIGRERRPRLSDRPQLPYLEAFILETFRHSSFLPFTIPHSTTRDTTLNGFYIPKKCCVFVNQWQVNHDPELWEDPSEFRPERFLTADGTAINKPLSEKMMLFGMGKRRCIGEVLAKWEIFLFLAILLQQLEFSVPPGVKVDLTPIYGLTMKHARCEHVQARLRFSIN"}, "Cytochrome P450 2D6": {"target": "Cytochrome P450 2D6 (Homo sapiens, UniProt P10635)", "sequence (P10635 whole entry)": "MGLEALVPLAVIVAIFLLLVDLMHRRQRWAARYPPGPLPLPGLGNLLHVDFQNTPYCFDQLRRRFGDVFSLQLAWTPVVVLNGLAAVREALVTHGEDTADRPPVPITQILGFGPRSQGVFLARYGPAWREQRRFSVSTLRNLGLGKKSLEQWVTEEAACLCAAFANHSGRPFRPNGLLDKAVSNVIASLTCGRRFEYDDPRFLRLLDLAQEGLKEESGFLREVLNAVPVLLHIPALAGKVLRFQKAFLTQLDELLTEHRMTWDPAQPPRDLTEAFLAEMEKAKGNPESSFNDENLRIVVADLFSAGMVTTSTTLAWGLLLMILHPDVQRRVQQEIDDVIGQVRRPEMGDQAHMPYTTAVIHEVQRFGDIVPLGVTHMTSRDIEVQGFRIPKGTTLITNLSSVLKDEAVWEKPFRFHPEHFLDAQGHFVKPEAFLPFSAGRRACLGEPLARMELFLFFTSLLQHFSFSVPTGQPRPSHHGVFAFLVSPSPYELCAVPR"}, "fMet-Leu-Phe receptor": {"target": "T3, fMet-Leu-Phe receptor (Homo sapiens, UniProt P21462)", "T3 sequence (P21462 whole entry)": "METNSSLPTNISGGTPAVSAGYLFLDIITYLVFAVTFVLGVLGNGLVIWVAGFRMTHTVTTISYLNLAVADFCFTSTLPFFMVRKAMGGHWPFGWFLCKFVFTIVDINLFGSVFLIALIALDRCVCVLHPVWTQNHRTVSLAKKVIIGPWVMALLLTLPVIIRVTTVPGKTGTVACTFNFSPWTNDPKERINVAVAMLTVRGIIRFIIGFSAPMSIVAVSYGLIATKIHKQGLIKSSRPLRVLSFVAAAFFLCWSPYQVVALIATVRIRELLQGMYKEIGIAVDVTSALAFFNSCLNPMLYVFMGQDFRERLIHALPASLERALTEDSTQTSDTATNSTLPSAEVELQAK", "assay": "FPR ligands, dose response (AID 519)", "assay_type": "functional"}, "Cytochrome P450 2C19": {"target": "Cytochrome P450 2C19 (Homo sapiens, UniProt P33261)", "sequence (P33261 whole entry)": "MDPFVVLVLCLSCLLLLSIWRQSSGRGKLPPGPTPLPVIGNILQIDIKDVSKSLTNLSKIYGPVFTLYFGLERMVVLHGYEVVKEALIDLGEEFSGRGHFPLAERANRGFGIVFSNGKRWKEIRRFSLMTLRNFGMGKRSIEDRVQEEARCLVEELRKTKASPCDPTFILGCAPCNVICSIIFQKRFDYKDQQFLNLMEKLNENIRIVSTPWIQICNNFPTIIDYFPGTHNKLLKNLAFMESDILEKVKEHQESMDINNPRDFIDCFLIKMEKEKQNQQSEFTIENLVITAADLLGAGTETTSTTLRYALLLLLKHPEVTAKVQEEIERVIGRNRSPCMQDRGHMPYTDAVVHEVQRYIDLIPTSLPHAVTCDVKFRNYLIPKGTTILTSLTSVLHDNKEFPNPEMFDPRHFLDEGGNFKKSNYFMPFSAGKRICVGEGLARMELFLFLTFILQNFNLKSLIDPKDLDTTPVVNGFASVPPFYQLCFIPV", "assay": "Cytochrome panel assay with activity outcomes. Panel member name: p450-cyp2c19 Compounds with AC50 equal or less than 10 uM are considered active", "assay_type": "functional", "conditions": "read-out: AC50"}, "[3]": {"target": "Peroxisome proliferator-activated receptor gamma/Nuclear receptor coactivator 3 (Homo sapiens, UniProt P37231)", "assay_type": "functional"}, "[4]": {"target": "Peroxisome proliferator-activated receptor gamma/Nuclear receptor coactivator 1 (Homo sapiens, UniProt P37231)", "sequence (P37231 whole entry)": "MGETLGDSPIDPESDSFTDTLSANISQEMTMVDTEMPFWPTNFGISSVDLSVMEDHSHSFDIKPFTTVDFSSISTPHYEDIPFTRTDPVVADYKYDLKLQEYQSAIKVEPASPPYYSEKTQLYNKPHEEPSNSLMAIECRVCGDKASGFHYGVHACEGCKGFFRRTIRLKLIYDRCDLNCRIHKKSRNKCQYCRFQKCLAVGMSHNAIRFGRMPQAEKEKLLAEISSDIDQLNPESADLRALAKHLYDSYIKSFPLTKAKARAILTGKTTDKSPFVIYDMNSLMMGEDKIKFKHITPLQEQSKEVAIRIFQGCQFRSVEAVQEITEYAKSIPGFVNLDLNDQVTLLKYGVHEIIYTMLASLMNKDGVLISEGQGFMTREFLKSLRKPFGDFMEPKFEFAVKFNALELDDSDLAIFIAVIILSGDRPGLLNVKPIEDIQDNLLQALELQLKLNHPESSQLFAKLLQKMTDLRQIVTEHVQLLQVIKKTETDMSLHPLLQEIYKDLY", "sequence (Q15788 whole entry, further chain)": "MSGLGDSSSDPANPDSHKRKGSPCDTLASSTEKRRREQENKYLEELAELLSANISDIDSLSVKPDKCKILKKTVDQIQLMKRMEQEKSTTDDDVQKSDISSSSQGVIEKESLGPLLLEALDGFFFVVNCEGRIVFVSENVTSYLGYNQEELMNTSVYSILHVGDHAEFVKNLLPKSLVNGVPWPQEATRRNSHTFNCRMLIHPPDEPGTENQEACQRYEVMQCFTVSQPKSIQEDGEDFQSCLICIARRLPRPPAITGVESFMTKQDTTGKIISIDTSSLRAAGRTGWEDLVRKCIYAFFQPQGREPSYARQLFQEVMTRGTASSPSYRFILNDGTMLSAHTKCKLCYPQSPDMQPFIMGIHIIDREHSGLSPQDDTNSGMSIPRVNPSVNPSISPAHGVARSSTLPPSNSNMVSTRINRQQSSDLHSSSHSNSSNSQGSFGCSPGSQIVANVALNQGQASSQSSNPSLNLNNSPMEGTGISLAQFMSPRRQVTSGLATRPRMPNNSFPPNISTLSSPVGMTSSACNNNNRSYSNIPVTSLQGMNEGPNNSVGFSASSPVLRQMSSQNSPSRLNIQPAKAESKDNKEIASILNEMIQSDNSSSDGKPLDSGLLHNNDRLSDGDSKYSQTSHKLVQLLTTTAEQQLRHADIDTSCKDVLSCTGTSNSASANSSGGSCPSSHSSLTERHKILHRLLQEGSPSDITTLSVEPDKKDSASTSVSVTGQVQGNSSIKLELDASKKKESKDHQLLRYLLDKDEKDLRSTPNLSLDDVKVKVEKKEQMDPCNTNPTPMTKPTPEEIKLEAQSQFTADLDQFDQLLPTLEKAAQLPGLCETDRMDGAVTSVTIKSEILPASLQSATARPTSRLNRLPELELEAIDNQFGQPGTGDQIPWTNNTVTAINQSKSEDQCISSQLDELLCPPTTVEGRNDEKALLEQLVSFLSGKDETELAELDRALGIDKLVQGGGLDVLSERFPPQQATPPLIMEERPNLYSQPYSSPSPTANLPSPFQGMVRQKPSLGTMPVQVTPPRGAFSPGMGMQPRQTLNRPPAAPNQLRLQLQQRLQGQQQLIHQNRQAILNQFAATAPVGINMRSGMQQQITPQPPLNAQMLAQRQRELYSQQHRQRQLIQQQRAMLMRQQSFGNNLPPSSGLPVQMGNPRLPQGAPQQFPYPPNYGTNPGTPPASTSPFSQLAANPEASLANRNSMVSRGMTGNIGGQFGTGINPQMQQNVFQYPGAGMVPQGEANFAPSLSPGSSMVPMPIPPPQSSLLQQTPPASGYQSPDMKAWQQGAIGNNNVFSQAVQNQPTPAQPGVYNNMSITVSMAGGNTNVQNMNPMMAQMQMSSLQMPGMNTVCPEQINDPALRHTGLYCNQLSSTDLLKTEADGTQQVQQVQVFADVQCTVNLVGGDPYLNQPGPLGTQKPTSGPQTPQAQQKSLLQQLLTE", "assay_type": "functional"}, "[5]": {"target": "Peroxisome proliferator-activated receptor gamma/Nuclear receptor coactivator 2 (Homo sapiens, UniProt P37231)", "sequence (P37231 whole entry)": "as the sequence (P37231 whole entry) above", "sequence (Q15596 whole entry, further chain)": "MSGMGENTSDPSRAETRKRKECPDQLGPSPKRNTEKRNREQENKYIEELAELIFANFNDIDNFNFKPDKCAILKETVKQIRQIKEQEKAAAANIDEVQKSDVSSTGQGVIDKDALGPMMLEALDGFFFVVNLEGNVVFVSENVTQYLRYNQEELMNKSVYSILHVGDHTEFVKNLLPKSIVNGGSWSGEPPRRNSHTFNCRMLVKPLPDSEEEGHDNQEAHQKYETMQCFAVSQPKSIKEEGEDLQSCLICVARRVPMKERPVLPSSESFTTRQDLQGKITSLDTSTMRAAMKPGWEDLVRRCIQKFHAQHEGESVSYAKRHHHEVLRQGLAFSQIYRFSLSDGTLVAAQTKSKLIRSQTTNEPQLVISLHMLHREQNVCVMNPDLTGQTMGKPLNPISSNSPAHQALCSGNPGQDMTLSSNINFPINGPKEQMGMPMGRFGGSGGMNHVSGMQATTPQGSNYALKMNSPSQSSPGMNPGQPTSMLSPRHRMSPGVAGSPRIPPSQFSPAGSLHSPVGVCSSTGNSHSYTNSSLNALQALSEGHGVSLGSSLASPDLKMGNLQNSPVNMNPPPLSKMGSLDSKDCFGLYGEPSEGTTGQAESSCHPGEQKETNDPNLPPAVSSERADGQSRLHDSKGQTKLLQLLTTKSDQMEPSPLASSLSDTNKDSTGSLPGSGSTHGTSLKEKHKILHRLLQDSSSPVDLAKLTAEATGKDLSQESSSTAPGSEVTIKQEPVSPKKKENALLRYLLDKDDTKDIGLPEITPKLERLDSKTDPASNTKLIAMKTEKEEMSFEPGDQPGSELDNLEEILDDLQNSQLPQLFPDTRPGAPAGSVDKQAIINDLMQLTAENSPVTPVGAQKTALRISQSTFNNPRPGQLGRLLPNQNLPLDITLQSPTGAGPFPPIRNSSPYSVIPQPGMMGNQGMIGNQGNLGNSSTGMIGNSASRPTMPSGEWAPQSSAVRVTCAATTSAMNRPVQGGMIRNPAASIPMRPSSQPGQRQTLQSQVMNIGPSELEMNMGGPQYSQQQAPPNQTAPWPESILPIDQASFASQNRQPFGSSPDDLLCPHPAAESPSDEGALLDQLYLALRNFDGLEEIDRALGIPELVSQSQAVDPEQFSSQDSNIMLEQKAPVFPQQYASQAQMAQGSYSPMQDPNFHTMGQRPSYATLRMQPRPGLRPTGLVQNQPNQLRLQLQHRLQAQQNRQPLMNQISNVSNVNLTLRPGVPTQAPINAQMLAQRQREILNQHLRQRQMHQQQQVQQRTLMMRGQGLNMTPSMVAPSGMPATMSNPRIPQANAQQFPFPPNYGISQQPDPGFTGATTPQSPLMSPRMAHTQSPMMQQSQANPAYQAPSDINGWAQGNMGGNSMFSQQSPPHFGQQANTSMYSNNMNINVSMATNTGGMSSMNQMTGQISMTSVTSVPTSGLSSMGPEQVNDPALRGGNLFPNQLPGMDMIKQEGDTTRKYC", "assay_type": "functional"}, "[6]": {"assay": "inhibitors of Vif binding to APOBEC3G peptide, primary screen, biochemical, TR-FRET, GST-Vif 1-94, biotin-A3G peptide, dose response retest (AID 1117319);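 also: TR-FRET signal of purified GST-Vif binding a biotinylated A3G peptide; inhibitors lower the FRET signal by blocking Vif and A3G binding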", "assay_type": "functional"}, "[7]": {"target": "T4, Heat shock factor protein 1 (Mus musculus, UniProt P38532)", "T4 sequence (P38532 whole entry)": "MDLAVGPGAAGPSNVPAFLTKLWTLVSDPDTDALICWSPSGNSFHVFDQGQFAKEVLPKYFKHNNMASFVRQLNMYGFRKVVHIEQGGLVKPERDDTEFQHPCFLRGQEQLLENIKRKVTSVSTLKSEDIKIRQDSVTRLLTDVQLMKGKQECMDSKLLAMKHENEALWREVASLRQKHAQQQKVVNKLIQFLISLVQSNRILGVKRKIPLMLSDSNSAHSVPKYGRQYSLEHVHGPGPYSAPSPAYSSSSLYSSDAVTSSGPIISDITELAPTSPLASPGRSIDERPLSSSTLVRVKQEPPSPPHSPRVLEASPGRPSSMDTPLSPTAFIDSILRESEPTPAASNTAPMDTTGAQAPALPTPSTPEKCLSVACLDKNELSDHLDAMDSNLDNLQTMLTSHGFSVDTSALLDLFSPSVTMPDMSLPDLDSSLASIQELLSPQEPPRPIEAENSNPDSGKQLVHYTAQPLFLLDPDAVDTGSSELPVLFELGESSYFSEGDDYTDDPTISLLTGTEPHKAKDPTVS", "assay": "HSF1 potentiators in luciferase reporter cells, confirmation, cell-based, NIH3T3, luminescence, dose retest (AID 435004);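 also: stress induced by proteasome inhibitor MG132 added 30 min after compound; actives raise luminescence as potentiators of the MG132 stress response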", "assay_type": "functional"}, "Streptokinase A": {"target": "T5, Streptokinase A (Streptococcus pyogenes serotype M1, UniProt P10520)", "T5 sequence (P10520 whole entry)": "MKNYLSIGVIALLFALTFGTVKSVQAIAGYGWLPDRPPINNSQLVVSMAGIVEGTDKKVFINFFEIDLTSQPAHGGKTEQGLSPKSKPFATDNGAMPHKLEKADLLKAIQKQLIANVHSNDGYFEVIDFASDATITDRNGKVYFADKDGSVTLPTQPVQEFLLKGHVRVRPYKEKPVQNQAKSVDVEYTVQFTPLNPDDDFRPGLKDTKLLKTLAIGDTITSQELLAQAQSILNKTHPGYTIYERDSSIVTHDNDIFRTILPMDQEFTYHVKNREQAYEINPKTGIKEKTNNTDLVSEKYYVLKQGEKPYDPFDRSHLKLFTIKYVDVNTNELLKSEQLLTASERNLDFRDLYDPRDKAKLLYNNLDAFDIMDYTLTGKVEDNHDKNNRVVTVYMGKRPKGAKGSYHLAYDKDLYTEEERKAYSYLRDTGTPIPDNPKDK", "assay": "S. pyogenes streptokinase expression inhibitors, potency, dose response, plasminogen activation absorbance, OD405 (AID 1914);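 also: secreted streptokinase activity via plasminogen activation per viability signal from cell pellet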", "assay_type": "functional, Streptococcus pyogenes M1 GAS"}, "[8]": {"tested_on": "Streptococcus sp. 'group A'", "assay": "growth inhibition of control SK(-) GAS strain, dose response, counter-screen for streptokinase expression inhibitor project, luminescence, kanamycin, BacTiterGlo, confirmation (AID 1900)", "assay_type": "functional, organism-based"}, "Streptococcus": {"tested_on": "Streptococcus", "assay": "Group A Streptococcus viability loss, dose response, counter-screen for streptokinase expression inhibitor project, luminescence, BacTiterGlo (AID 1915);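 also: potency for reduction of bacterial viability or growth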", "assay_type": "functional, organism-based"}, "[9]": {"assay": "HEp-2 cell cytotoxicity, dose response, cytotoxicity control for RSV inhibitor project, HTS (AID 2410)", "assay_type": "functional", "conditions": "human respiratory syncytial virus"}}, "note": "Calls of active or inactive are those of the source.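 For IC50 Mean in this document: Dose-response confirmation assay measuring inhibition of LMPTP enzyme activity by fluorescence intensity read-out.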", "data": [{"smiles": "Cc1ccc(-n2nc3c(N4CCC(C(=O)NCc5ccc(C)o5)CC4)nnc(C)c3c2C)cc1", "values": [{"measurement": "IC50", "setting": "[1]", "value": "23 µM (inactive)"}]}, {"smiles": "CC1(C)CN(c2ccccc2)N(C(=O)c2ccc(F)cc2)C1=O", "values": [{"measurement": "IC50", "setting": "Prothrombin", "value": "0.837 µM (active)"}, {"measurement": "AC50", "setting": "[2]", "value": "3.63 µM (active)"}]}, {"smiles": "CCC(C)(C(=O)NC1CCCC1)N(CC1CCCO1)C(=O)c1ccc2c(c1)OCO2", "note": "(centres undefined)", "values": [{"measurement": "AC50", "setting": "Cytochrome P450 1A2", "value": "39.8 µM (inconclusive)"}, {"measurement": "AC50", "setting": "Cytochrome P450 2D6", "value": "35.5 µM (inconclusive)"}, {"measurement": "Ki", "setting": "fMet-Leu-Phe receptor", "value": "> 66.7 µM (inactive)"}, {"measurement": "AC50", "setting": "Cytochrome P450 2C19", "value": "5.62 µM (inconclusive)"}]}, {"smiles": "COc1ccc(C2(CNC(=O)/C=C\\c3ccco3)CCCC2)cc1OC", "values": [{"measurement": "EC50", "setting": "[3]", "value": "> 79.4 µM (not active)"}, {"measurement": "EC50", "setting": "[4]", "value": "> 79.4 µM (not active)"}, {"measurement": "EC50", "setting": "[5]", "value": "> 79.4 µM (not active)"}]}, {"smiles": "O=C(CSc1nc(O)c2cnn(-c3ccc(F)cc3)c2n1)N1CCCCCC1", "values": [{"measurement": "IC50", "setting": "Prothrombin", "value": "> 50 µM (not active)"}]}, {"smiles": "CN(C)S(=O)(=O)c1ccc(C(=O)OCC(=O)c2ccc3c(c2)NC(=O)CO3)cc1", "values": [{"measurement": "IC50", "setting": "[1]", "value": "29.3 µM (inactive)"}]}, {"smiles": "Oc1c(C(c2ccccc2)N2CCN(Cc3ccccc3)CC2)sc2ncnn12", "note": "(centres undefined)", "values": [{"measurement": "IC50", "setting": "[6]", "value": "> 100 µM (active)"}]}, {"smiles": "Cc1ccc(-n2c(C)cc(C(=O)COc3c(CO)cc(F)cc3CO)c2C)cc1C", "values": [{"measurement": "EC50", "setting": "[3]", "value": "> 79.4 µM (not active)"}, {"measurement": "EC50", "setting": "[7]", "value": "> 260 µM (inactive)"}, {"measurement": "EC50", "setting": "[4]", "value": "> 79.4 µM (not active)"}, {"measurement": "EC50", "setting": "[5]", "value": "> 79.4 µM (not active)"}]}, {"smiles": "Cn1c(CN2CCOCC2)nc2cc(NC(=O)c3ccc(F)cc3)ccc21", "values": [{"measurement": "IC50", "setting": "[6]", "value": "> 100 µM (active)"}]}, {"smiles": "COc1cccc2sc(N3CCN(c4nc5ccccc5s4)CC3)nc12", "values": [{"measurement": "EC50", "setting": "[3]", "value": "22.9 µM (not active)"}, {"measurement": "EC50", "setting": "[4]", "value": "13.4 µM (not active)"}, {"measurement": "EC50", "setting": "[5]", "value": "19.1 µM (not active)"}]}, {"smiles": "CCn1cc(C(=O)NCc2ccc3c(c2)OCO3)c(=O)c2cc(F)c(N3CCN(C(=O)c4ccco4)CC3)cc21", "values": [{"measurement": "EC50", "setting": "Streptokinase A", "value": "> 150 µM (not active)"}, {"measurement": "IC50", "setting": "[1]", "value": "29.4 µM (inactive)"}, {"measurement": "EC50", "setting": "[8]", "value": "6.52 µM (active)"}, {"measurement": "EC50", "setting": "Streptococcus", "value": "20.8 µM (active)"}]}, {"smiles": "Cc1ccccc1CC1(CO)CCCN(C(=O)CCC(=O)c2ccccc2)C1", "note": "(centres undefined)", "values": [{"measurement": "EC50", "setting": "[3]", "value": "> 79.4 µM (not active)"}, {"measurement": "CC50", "setting": "[9]", "value": "28.5 µM (active)"}, {"measurement": "EC50", "setting": "[4]", "value": "> 79.4 µM (not active)"}, {"measurement": "EC50", "setting": "[5]", "value": "> 79.4 µM (not active)"}]}]}
